Experimental findings from ChEMBL document CHEMBL1201862, “PubChem BioAssay data set” (2004) are described below.

Assay [1] in a line: CRF-BP/CRF-R2 complex antagonists, dose response, cell-based, uHTS hits, 384-well (AID 651639). Format: functional, Homo sapiens. The note with it: read-out: IC50_Mean.
In assay [2] the target is T1, Corticotropin-releasing factor receptor 2/Corticotropin-releasing factor-binding protein (Homo sapiens, UniProt P24387+Q13324).
T1 sequence (Q13324 whole entry): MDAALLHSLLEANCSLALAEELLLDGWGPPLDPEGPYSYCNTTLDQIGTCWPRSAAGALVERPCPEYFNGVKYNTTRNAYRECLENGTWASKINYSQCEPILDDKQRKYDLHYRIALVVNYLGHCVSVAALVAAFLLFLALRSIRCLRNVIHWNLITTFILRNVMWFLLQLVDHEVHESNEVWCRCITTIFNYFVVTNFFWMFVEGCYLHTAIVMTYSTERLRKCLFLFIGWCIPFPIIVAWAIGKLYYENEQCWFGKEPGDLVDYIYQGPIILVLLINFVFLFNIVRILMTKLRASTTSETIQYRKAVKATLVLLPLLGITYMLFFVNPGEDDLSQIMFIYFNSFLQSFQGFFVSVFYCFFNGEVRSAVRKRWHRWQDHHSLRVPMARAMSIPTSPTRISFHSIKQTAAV
T1 sequence (P24387 whole entry): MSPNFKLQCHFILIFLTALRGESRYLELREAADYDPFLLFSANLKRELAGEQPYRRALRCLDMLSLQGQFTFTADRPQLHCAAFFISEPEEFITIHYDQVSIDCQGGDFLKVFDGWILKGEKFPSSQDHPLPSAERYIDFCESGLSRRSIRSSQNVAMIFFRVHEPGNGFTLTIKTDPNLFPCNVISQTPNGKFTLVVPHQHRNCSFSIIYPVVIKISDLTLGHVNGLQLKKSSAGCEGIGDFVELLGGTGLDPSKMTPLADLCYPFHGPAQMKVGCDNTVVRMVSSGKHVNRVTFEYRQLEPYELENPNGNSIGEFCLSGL
Briefly: activators of CRF receptor 2 with binding protein – uHTS hits, confirmation (AID 602473). The format is functional. The conditions noted are these: read-out: EC50_Mean.

Assay [3] concerns the target T1, Corticotropin-releasing factor receptor 2/Corticotropin-releasing factor-binding protein. The experiment in a line: Dose Response confirmation of uHTS hits for small molecule antagonists of the CRF-binding protein and CRF-R2 receptor complex. The format is functional. The conditions noted are these: read-out: IC50_Mean.
In assay [4] the target is T2, Fatty acid synthase (Homo sapiens, UniProt P49327). Briefly: FAS thioesterase domain inhibitors, dose response, biochemical, endpoint fluorescence intensity, uHTS hits (AID 624327).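 Note: fluorescence from hydrolysis of an O-methyl fluorescein acyl ester substrate by the enzyme.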 The format is functional.
Assay [5] addresses Beta Lactamase (Pseudomonas aeruginosa, UniProt Q932Y6). The experiment in a line: beta-lactamase reporter inhibitor potency, dose response, artefact control for NOD2-RIPK2 interaction inhibitor project, BLA reporter cells, FRET fluorescence (AID 651552). Format: functional, cell-based.
In assay [6] the target is T2, Fatty acid synthase. Briefly: FAS thioesterase domain inhibitors, dose response, biochemical, kinetic fluorescence intensity (AID 624326).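 Note: rate of fluorescence rise from hydrolysis of a fluorogenic O-methyl fluorescein ester substrate.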 Format: functional.
The nature of assay [7]: Fluorescence-based cell-based high throughput dose response assay for inhibitors of the interaction of nucleotide-binding oligomerization domain containing 2 (NOD2) and the receptor-interacting serine-threonine kinase 2 (RIPK2). The format is functional. The conditions noted are these: Homo sapiens.

Activity calls are given as the source filed them. Where only a bound is given, the exact number is not on record here.

T2 sequence (P49327 whole entry, the tested form may be a part): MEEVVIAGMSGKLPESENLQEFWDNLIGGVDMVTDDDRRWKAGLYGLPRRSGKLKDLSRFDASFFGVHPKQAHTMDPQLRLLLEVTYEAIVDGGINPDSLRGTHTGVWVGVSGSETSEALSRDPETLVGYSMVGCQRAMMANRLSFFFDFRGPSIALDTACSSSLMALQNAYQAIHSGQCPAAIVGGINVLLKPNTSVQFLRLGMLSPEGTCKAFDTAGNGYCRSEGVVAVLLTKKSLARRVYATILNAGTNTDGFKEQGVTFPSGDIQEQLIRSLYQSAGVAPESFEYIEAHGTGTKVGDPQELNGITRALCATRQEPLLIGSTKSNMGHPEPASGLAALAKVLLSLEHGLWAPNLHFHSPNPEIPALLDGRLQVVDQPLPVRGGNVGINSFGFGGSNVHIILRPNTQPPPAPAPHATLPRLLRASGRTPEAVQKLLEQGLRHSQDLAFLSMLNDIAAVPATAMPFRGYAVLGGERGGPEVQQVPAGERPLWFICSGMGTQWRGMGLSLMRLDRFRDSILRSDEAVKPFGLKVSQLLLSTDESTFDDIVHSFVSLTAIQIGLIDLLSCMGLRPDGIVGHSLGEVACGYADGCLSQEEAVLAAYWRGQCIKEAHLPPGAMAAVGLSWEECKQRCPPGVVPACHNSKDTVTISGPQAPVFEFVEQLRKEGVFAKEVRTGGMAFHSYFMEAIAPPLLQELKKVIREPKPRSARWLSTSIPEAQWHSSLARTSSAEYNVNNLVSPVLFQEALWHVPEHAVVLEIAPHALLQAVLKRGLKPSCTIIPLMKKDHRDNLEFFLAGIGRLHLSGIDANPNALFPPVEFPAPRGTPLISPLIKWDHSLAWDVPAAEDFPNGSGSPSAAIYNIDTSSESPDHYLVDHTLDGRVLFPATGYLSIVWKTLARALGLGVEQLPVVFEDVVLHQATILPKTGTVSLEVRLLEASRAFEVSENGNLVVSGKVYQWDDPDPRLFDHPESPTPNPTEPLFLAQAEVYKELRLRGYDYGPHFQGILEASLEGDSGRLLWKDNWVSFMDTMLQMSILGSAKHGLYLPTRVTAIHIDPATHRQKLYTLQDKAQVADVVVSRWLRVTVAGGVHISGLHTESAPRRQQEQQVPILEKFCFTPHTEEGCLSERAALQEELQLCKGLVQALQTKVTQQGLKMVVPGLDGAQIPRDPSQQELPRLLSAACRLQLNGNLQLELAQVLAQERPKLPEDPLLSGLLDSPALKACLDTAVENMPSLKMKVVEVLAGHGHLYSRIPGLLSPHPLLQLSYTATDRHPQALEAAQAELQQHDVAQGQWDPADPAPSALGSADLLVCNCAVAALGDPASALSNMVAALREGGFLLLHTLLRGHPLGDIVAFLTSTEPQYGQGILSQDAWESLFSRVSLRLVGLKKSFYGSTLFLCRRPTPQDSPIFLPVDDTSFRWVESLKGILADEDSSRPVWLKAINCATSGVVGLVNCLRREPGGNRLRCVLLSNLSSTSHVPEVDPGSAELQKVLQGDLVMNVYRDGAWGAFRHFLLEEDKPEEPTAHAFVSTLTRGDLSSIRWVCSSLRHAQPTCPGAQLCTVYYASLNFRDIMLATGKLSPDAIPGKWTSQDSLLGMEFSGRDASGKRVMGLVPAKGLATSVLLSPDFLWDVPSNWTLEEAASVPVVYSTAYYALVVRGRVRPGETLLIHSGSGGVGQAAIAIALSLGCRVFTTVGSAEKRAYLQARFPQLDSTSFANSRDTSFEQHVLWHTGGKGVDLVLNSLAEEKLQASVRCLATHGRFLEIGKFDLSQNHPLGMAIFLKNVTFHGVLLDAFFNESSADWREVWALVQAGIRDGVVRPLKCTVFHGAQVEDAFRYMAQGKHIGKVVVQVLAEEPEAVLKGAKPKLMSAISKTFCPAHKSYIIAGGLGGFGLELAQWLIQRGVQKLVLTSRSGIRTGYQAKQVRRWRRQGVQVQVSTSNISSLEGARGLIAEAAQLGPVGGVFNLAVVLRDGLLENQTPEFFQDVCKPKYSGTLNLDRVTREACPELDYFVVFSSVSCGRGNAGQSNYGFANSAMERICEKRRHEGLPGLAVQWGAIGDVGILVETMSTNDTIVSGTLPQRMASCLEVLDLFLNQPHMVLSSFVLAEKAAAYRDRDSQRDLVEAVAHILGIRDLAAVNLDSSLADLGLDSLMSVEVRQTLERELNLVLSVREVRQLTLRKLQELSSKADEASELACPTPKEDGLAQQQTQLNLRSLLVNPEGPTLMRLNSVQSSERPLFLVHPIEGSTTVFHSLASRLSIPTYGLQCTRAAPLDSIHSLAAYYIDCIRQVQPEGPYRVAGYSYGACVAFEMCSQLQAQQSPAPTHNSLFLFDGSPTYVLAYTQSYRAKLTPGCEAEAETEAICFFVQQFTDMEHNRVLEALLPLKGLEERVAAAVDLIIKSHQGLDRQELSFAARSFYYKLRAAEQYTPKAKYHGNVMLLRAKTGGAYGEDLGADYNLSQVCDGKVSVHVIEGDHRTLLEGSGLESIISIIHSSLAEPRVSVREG
Chain of Beta Lactamase (Q932Y6 whole entry, the tested form may be a part): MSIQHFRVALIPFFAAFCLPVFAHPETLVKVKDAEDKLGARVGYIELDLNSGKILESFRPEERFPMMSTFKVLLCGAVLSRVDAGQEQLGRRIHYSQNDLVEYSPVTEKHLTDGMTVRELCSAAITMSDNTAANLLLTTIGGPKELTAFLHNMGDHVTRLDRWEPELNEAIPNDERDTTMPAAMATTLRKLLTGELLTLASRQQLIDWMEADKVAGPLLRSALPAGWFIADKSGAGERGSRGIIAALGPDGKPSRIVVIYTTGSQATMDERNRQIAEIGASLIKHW

`Cc1cc(C)cc(N(C(=O)c2nsc(Cl)c2Cl)C(C(=O)NC2CCCC2)c2ccc(O)cc2)c1` (configuration not stated): the IC50 in assay [1] was > 20 µM (inactive); in assay [3], 6.02 µM (active). In addition, in assay [2], the EC50 is > 53 µM (inactive).
With `CCOC(=O)[C@]12Cc3c(cc(OC)c(OC)c3OC)[C@H]1N(C1CCCCC1)C(=O)c1ccccc12`, the IC50 was 8.89 µM (active) in assay [4], 25.5 µM (inactive) in assay [5], 7.77 µM (active) in assay [6] and 2.03 µM (active) in assay [7].
